Literature values, collected in article PMC9500858 (International Journal of Molecular Sciences, 2022).
Where two headings read alike, the source gives them in different places.

Key:
[1] = tested on: CA1 region of the hippocampus; details: combined administration with NMDA, cited from earlier work
Text: (§1) Since hybrid compounds have gained attention due to their potent multifunctional behavior with a more favorable profile in terms of possible side effects, much work devoted to such compounds can be found. PK20 and [Ile^9]PK20, which are hybrid structures encompassing both opioid and neurotensin pharmacophores, although modified, were designed and synthesized to reduce pain.

[2] = 0.005 nmol/rat at 120 min and 0.02 nmol/rat at 30, 60 and 120 min; cited from earlier work
Text: as §1

Substance	extent of damage to the CA1 region of the hippocampus ([1]; dose 25 ng/mL)	extent of damage to the CA1 region of the hippocampus ([1]; dose 50 ng/mL)	extent of damage to the CA1 region of the hippocampus ([1]; dose 100 ng/mL)	induced analgesia compared to PK20 [2]
HELM PEPTIDE1{[Cc1cc(O)cc(C)c1C[C@H](N)C(=O)[*:2]].[dK].F.F.K.K.P.F.[CC(C)(C)[C@H](N[*:1])C(=O)[*:2]].L}$$$$V2.0 (N-terminus assumed; SMILES Cc1cc(O)cc(C)c1C[C@H](N)C(=O)N[C@H](CCCCN)C(=O)N[C@@H](Cc1ccccc1)C(=O)N[C@@H](Cc1ccccc1)C(=O)N[C@@H](CCCCN)C(=O)N[C@@H](CCCCN)C(=O)N1CCC[C@H]1C(=O)N[C@@H](Cc1ccccc1)C(=O)N[C@H](C(=O)N[C@@H](CC(C)C)C(=O)O)C(C)(C)C) [PK20, opioid–neurotensin hybrid peptide]	1.47% ± 1.20	5.18% ± 2.84	6.82% ± 6.08	–
HELM PEPTIDE1{[Cc1cc(O)cc(C)c1C[C@H](N)C(=O)[*:2]].[dK].F.F.K.K.P.F.I.L}$$$$V2.0 (N-terminus assumed; SMILES CC[C@H](C)[C@H](NC(=O)[C@H](Cc1ccccc1)NC(=O)[C@@H]1CCCN1C(=O)[C@H](CCCCN)NC(=O)[C@H](CCCCN)NC(=O)[C@H](Cc1ccccc1)NC(=O)[C@H](Cc1ccccc1)NC(=O)[C@@H](CCCCN)NC(=O)[C@@H](N)Cc1c(C)cc(O)cc1C)C(=O)N[C@@H](CC(C)C)C(=O)O) [[Ile^9]PK20, analogue of PK20 with Ile instead of Tle at position 9]	–	–	–	significantly lower
